Measurements as given in ChEMBL document CHEMBL1138190, “Synthesis and antibacterial activity of novel C12 vinyl ketolides” (J Med Chem, 2006).
≈ marks a conversion by molar mass, not a printed value.

How the values were obtained:
Type in all cases: functional
[1] = system: Haemophilus influenzae; assay: Antibacterial activity against Haemophilus influenzae 2762
[2] = system: Staphylococcus aureus; assay: Antibacterial activity against Staphylococcus aureus 29213
[3] = system: Staphylococcus aureus; assay: Antibacterial activity against Staphylococcus aureus 33591
[4] = system: Staphylococcus epidermidis; assay: Antibacterial activity against Staphylococcus epidermidis 14990
[5] = system: Staphylococcus epidermidis; assay: Antibacterial activity against Staphylococcus epidermidis f50654
[6] = system: Enterococcus faecalis; assay: Antibacterial activity against Enterococcus faecalis 29212
[7] = system: Enterococcus faecalis; assay: Antibacterial activity against Enterococcus faecalis bc11148-2
[8] = system: Streptococcus pyogenes; assay: Antibacterial activity against Streptococcus pyogenes 8668
[9] = system: Streptococcus pneumoniae; assay: Antibacterial activity against Streptococcus pneumoniae 49619
[10] = system: Streptococcus pneumoniae; assay: Antibacterial activity against Streptococcus pneumoniae 297-749
[11] = system: Streptococcus pneumoniae; assay: Antibacterial activity against Streptococcus pneumoniae 280-962
[12] = system: Streptococcus pneumoniae; assay: Antibacterial activity against Streptococcus pneumoniae Erm 6849
[13] = system: Streptococcus pneumoniae; assay: Antibacterial activity against Streptococcus pneumoniae Mef 5654
[14] = system: Streptococcus pneumoniae; assay: Antibacterial activity against Streptococcus pneumoniae Mef S 3427
[15] = system: Haemophilus influenzae; assay: Antibacterial activity against Haemophilus influenzae 49247

Structure (SMILES) | MIC [1] | MIC [2] | MIC [3] | MIC [4] | MIC [5] | MIC [6] | MIC [7] | MIC [8] | MIC [9] | MIC [10] | MIC [11] | MIC [12] | MIC [13] | MIC [14] | MIC [15]
C=C[C@]12OC(=O)N(CCCCn3cnc(-c4cncnc4)c3)[C@@H]1[C@@H](C)C(=O)[C@H](C)C[C@@](C)(OC)[C@H](O[C@@H]1O[C@H](C)C[C@H](N(C)C)[C@H]1O)[C@@H](C)C(=O)[C@@H](C)C(=O)O[C@@H]2CC | 1.56 µg/mL (≈ 1.89 µM) | 0.2 µg/mL (≈ 0.242 µM) | > 50 µg/mL | 0.2 µg/mL (≈ 0.242 µM) | 0.2 µg/mL (≈ 0.242 µM) | 0.1 µg/mL (≈ 0.121 µM) | 0.4 µg/mL (≈ 0.485 µM) | ≤ 0.05 µg/mL | ≤ 0.05 µg/mL | ≤ 0.05 µg/mL | ≤ 0.05 µg/mL | 0.2 µg/mL (≈ 0.242 µM) | 0.78 µg/mL (≈ 0.945 µM) | 0.1 µg/mL (≈ 0.121 µM) | 3.13 µg/mL (≈ 3.79 µM)
C=C[C@]12OC(=O)N(CCCCn3cnc(-c4ccc(F)nc4)c3)[C@@H]1[C@@H](C)C(=O)[C@H](C)C[C@@](C)(OC)[C@H](O[C@@H]1O[C@H](C)C[C@H](N(C)C)[C@H]1O)[C@@H](C)C(=O)[C@@H](C)C(=O)O[C@@H]2CC | 1.56 µg/mL (≈ 1.85 µM) | 0.1 µg/mL (≈ 0.119 µM) | > 50 µg/mL | 0.1 µg/mL (≈ 0.119 µM) | 0.1 µg/mL (≈ 0.119 µM) | 0.1 µg/mL (≈ 0.119 µM) | 0.4 µg/mL (≈ 0.475 µM) | ≤ 0.05 µg/mL | ≤ 0.05 µg/mL | ≤ 0.05 µg/mL | ≤ 0.05 µg/mL | 0.78 µg/mL (≈ 0.926 µM) | 0.4 µg/mL (≈ 0.475 µM) | 0.1 µg/mL (≈ 0.119 µM) | 3.13 µg/mL (≈ 3.72 µM)
C=C[C@]12OC(=O)N(CCN(C)Cc3ccc(-c4cccnc4)s3)[C@@H]1[C@@H](C)C(=O)[C@H](C)C[C@@](C)(OC)[C@H](O[C@@H]1O[C@H](C)C[C@H](N(C)C)[C@H]1O)[C@@H](C)C(=O)[C@@H](C)C(=O)O[C@@H]2CC | 3.13 µg/mL (≈ 3.66 µM) | 0.2 µg/mL (≈ 0.234 µM) | > 50 µg/mL | 0.1 µg/mL (≈ 0.117 µM) | 0.2 µg/mL (≈ 0.234 µM) | 0.1 µg/mL (≈ 0.117 µM) | 0.4 µg/mL (≈ 0.468 µM) | ≤ 0.05 µg/mL | ≤ 0.05 µg/mL | ≤ 0.05 µg/mL | ≤ 0.05 µg/mL | 0.2 µg/mL (≈ 0.234 µM) | 0.78 µg/mL (≈ 0.912 µM) | 0.1 µg/mL (≈ 0.117 µM) | 6.25 µg/mL (≈ 7.31 µM)
C=C[C@]12OC(=O)N(CCCCc3cnc(-c4cccnc4)s3)[C@@H]1[C@@H](C)C(=O)[C@H](C)C[C@@](C)(OC)[C@H](O[C@@H]1O[C@H](C)C[C@H](N(C)C)[C@H]1O)[C@@H](C)C(=O)[C@@H](C)C(=O)O[C@@H]2CC | 1.56 µg/mL (≈ 1.85 µM) | 0.1 µg/mL (≈ 0.119 µM) | > 50 µg/mL | 0.1 µg/mL (≈ 0.119 µM) | 0.1 µg/mL (≈ 0.119 µM) | ≤ 0.05 µg/mL | 1.56 µg/mL (≈ 1.85 µM) | ≤ 0.05 µg/mL | ≤ 0.05 µg/mL | ≤ 0.05 µg/mL | ≤ 0.05 µg/mL | 1.56 µg/mL (≈ 1.85 µM) | 0.4 µg/mL (≈ 0.476 µM) | ≤ 0.05 µg/mL | 3.13 µg/mL (≈ 3.72 µM)

More lines, in order of falling MIC [1], values ahead:

MIC [1] | MIC [2] | MIC [3] | MIC [4] | MIC [5] | MIC [6] | MIC [7] | MIC [8] | MIC [9] | MIC [10] | MIC [11] | MIC [12] | MIC [13] | MIC [14] | MIC [15] | Structure (SMILES)
1.56 µg/mL (≈ 1.86 µM) | 0.4 µg/mL (≈ 0.476 µM) | > 50 µg/mL | 0.2 µg/mL (≈ 0.238 µM) | 0.2 µg/mL (≈ 0.238 µM) | 0.2 µg/mL (≈ 0.238 µM) | 3.13 µg/mL (≈ 3.73 µM) | ≤ 0.05 µg/mL | ≤ 0.05 µg/mL | ≤ 0.05 µg/mL | ≤ 0.05 µg/mL | 12.5 µg/mL (≈ 14.9 µM) | 3.13 µg/mL (≈ 3.73 µM) | 1.56 µg/mL (≈ 1.86 µM) | 6.25 µg/mL (≈ 7.44 µM) | C=C[C@]12OC(=O)N(CCCCn3cnc(-c4ccc(O)nc4)c3)[C@@H]1[C@@H](C)C(=O)[C@H](C)C[C@@](C)(OC)[C@H](O[C@@H]1O[C@H](C)C[C@H](N(C)C)[C@H]1O)[C@@H](C)C(=O)[C@@H](C)C(=O)O[C@@H]2CC
0.78 µg/mL (≈ 0.93 µM) | 0.1 µg/mL (≈ 0.119 µM) | > 50 µg/mL | 0.2 µg/mL (≈ 0.238 µM) | 0.1 µg/mL (≈ 0.119 µM) | 0.1 µg/mL (≈ 0.119 µM) | 0.78 µg/mL (≈ 0.93 µM) | ≤ 0.05 µg/mL | ≤ 0.05 µg/mL | ≤ 0.05 µg/mL | ≤ 0.05 µg/mL | 0.2 µg/mL (≈ 0.238 µM) | 0.78 µg/mL (≈ 0.93 µM) | 0.2 µg/mL (≈ 0.238 µM) | 3.13 µg/mL (≈ 3.73 µM) | C=C[C@]12OC(=O)N(CCCCn3cnc(-c4cnc(C)cn4)c3)[C@@H]1[C@@H](C)C(=O)[C@H](C)C[C@@](C)(OC)[C@H](O[C@@H]1O[C@H](C)C[C@H](N(C)C)[C@H]1O)[C@@H](C)C(=O)[C@@H](C)C(=O)O[C@@H]2CC
0.78 µg/mL (≈ 0.914 µM) | 0.1 µg/mL (≈ 0.117 µM) | > 50 µg/mL | 0.2 µg/mL (≈ 0.234 µM) | 0.1 µg/mL (≈ 0.117 µM) | 0.1 µg/mL (≈ 0.117 µM) | 0.78 µg/mL (≈ 0.914 µM) | ≤ 0.05 µg/mL | ≤ 0.05 µg/mL | ≤ 0.05 µg/mL | ≤ 0.05 µg/mL | 0.4 µg/mL (≈ 0.469 µM) | 1.56 µg/mL (≈ 1.83 µM) | 0.2 µg/mL (≈ 0.234 µM) | 3.13 µg/mL (≈ 3.67 µM) | C=C[C@]12OC(=O)N(CCCCn3cnc(-c4ccc(NC)nc4)c3)[C@@H]1[C@@H](C)C(=O)[C@H](C)C[C@@](C)(OC)[C@H](O[C@@H]1O[C@H](C)C[C@H](N(C)C)[C@H]1O)[C@@H](C)C(=O)[C@@H](C)C(=O)O[C@@H]2CC
